Results from ChEMBL document CHEMBL5608257, “Structure-Based Optimization of a Series of Covalent, Cell Active Bfl-1 Inhibitors” (J Med Chem, 2024).

What was measured:
Bcl-2-related protein A1 [1] = biological target: T1, Bcl-2-related protein A1 (Homo sapiens, UniProt Q16548); assay: Inhibition of N-terminal His6-tagged recombinant Bfl-1 (1 to 151 residues)(unknown origin) extracted from Escherichia coli BL21-Gold (DE3) using HyLite Fluor 647-labeled Bim peptide as substrate incubated for 120 mins by TR-FRET assay
T1 sequence (Q16548 whole entry): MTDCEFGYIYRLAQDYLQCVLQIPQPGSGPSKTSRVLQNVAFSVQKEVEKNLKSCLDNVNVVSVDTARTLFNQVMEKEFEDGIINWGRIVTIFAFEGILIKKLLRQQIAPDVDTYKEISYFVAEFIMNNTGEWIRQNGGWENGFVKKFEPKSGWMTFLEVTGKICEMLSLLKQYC

Bcl-2-related protein A1 [2] = biological target: T1, Bcl-2-related protein A1; assay: Inhibition of Bfl-1 in human SU-DHL-1 cells assessed as caspase-3/7 activation measured after 6 hrs by UPLC-MRM MS analysis; assay type: cell-based
[3] = biological target: Induced myeloid leukemia cell differentiation protein Mcl-1 (Homo sapiens, UniProt Q07820); assay: Inhibition of Mcl-1 (unknown origin)
Sequence of Induced myeloid leukemia cell differentiation protein Mcl-1 (Q07820 whole entry): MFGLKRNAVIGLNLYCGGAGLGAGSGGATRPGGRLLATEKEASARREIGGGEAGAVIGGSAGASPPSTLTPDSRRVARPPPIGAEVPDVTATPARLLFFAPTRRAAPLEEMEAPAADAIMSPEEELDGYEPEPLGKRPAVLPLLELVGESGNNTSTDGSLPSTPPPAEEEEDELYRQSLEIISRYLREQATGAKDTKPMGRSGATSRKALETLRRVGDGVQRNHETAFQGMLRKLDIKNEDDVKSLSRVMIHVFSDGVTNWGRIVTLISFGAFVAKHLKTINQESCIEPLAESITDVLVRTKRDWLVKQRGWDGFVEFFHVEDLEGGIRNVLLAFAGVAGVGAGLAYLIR

| IC50 (Bcl-2-related protein A1 [1]) [µM] | EC50 (Bcl-2-related protein A1 [2]) [µM] | IC50 [3] [µM] | Structure (SMILES) |
| --- | --- | --- | --- |
| 0.34 |  |  | C=CC(=O)N(Cc1ccc(Cl)cc1)c1ccc(O[C@@H]2CC[C@@H](N)C2)cc1 |
| 5.1 |  |  | C=CC(=O)N(Cc1ccc(Cl)cc1)c1ccc(F)cc1 |
| > 100 |  |  | C=CC(=O)N(Cc1ccc(OC)cc1)c1ccccc1 |
| 29 |  |  | C=CC(=O)N(Cc1ccc(OC)cc1)c1ccccc1Cl |
| 9.8 |  |  | C=CC(=O)N(Cc1ccc(Cl)cc1)c1ccc(OC)cc1 |
| 0.022 | 0.37 | > 100 | C=CC(=O)N(c1ccc(O[C@@H]2CC[C@@H](N)C2)cc1)[C@@H](C)c1ccc(C(F)(F)F)c(C#N)c1 |
| 5.1 |  |  | C=CC(=O)N(Cc1ccc(Cl)cc1)c1ccc(O[C@H]2CC[C@H](N)C2)cc1 |
| 1.6 | 6.9 |  | C=CC(=O)N(c1ccc(O[C@@H]2CC[C@@H](N)C2)cc1)[C@H](C)c1ccc(C(F)(F)F)c(C#N)c1 |
| 19 |  |  | C=CC(=O)N(Cc1ccc(OC)cc1)c1ccc(Cl)cc1 |
| 0.45 | 7.4 |  | C=CC(=O)N(Cc1ccc(Cl)cc1)c1ccc(O[C@@H]2CC[C@@H](N)C2)cc1 (racemic) |
| 0.55 |  |  | C=CC(=O)N(Cc1ccc(C#N)c(Cl)c1)c1ccc(O[C@@H]2CC[C@@H](N)C2)cc1 (racemic) |
| 0.46 |  |  | C=CC(=O)N(Cc1ccc(Cl)cc1)c1ccc(O[C@@H]2CC[C@@H](NC(C)=O)C2)cc1 (racemic) |
| 0.35 | 3.7 |  | C=CC(=O)N(Cc1ccc(Cl)c(C#N)c1)c1ccc(O[C@@H]2CC[C@@H](N)C2)cc1 (racemic) |
| 0.36 |  |  | C=CC(=O)N(Cc1ccc(Cl)cc1)c1ccc(O[C@@H]2CC[C@@H](NC(=O)NC)C2)cc1 (racemic) |
| 0.3 | 1.8 |  | C=CC(=O)N(Cc1ccc(C(F)(F)F)c(C#N)c1)c1ccc(O[C@@H]2CC[C@@H](N)C2)cc1 (racemic) |
| 0.38 |  |  | C=CC(=O)N(Cc1ccc(Cl)cc1)c1ccc(O[C@@H]2CC[C@@H](NC)C2)cc1 (racemic) |
| 0.44 |  |  | C=CC(=O)N(Cc1ccc(Cl)cc1)c1ccc(O[C@@H]2CC[C@@H](N(C)C)C2)cc1 (racemic) |
| 22 |  |  | C=CC(=O)N(Cc1ccc(Cl)cc1)c1ccc(O[C@@H]2CC[C@@H](N(C)C(C)=O)C2)cc1 (racemic) |
| 0.72 | 2.6 |  | C=CC(=O)N(Cc1ccc(C(F)(F)F)cc1)c1ccc(O[C@@H]2CC[C@@H](N)C2)cc1 (racemic) |
| 42 |  |  | C=CC(=O)N(Cc1ccc(Cl)cc1)c1ccc(O[C@H]2CC[C@@H](N)C2)cc1 (racemic) |
